Counter-ions that a name gives are not always drawn. Some results are limits rather than exact numbers.

Data set [1] concerns intraocular pressure. The following applies: Annals of Ophthalmology, 3, No. 3, 282 (March 1971); cited from earlier work.
The subject of data set [2] is conscious rabbits. Put plainly: Ocular response (intraocular pressure, pupil diameter) to a single topical application to one eye of conscious rabbits. The data set is classed as in vivo. The following applies: for Intraocular Pressure (mm Hg) Mean Δ: control eye minus exp. eye; for Intraocular Pressure (mm Hg) Mean Δ / Pupil Diameter (mm) Mean Δ / Intraocular Pressure (mm Hg) Exp. Eye / Pupil Diameter (mm) Exp. Eye: mean of maximal responses; for Pupil Diameter (mm) Mean Δ: difference between pairs of eyes; for Intraocular Pressure (mm Hg) Exp. Eye / Pupil Diameter (mm) Exp. Eye: single topical application; for Intraocular Pressure (mm Hg) Mean Δ Control-Exp. / Intraocular Pressure (mm Hg) Treated Eye: single application; for intraocular pressure / pupillary dilation: in 0.9 percent (w/v) physiological saline, summary of Tables IIIA, IIIB, IV and V. The source says: The effect of different concentrations of racemic a-methyl norepinephrine hydrochloride in 0.9 percent (w/v) physiological saline applied singly to one eye of conscious rabbits is summarized in Table I, below.
The reported pressure and pupillary responses are the means of the maximal responses based on the time courses of the responses in pairs of eyes of individual rabbits. The number in parentheses denotes the number of experimental subjects.
The mean time course of the ocular response to a 0.5 percent (w/v) solution of racemic a-methyl norepinephrine in 0.9 percent (w/v) physiological saline applied unilaterally to conscious rabbits is shown in Table II, below.
The drug was applied unilaterally (treated eye). In the third column is reported the mean pressure difference in pairs of eyes of individual rabbits. The number in parentheses denotes the number of experimental subjects.
Tables IIIA, IIIB, IV and V, below, summarize the experimental results using racemic a-methyl epinephrine, diester of a-methyl epinephrine, and diester of a-methyl norepinephrine in 0.9 percent (w/v) physiological saline.
The drug was applied unilaterally (Exp. Eye) at T = 0 hr. In the third column is reported the mean pressure difference between pairs of eyes of individual rabbits.

For data set [3], the system named is normal healthy volunteers. Put plainly: Tonometry, tonography and pupil diameter after one drop to one eye of human subjects. The following applies: for intraocular pressures of the treated eyes: one drop of 0.1 percent (w/v), seven subjects. Format: in vivo. On the procedure: Tonometry and tonography studies were performed on normal healthy volunteers using an instrument denominated The Alcon pneumatonograph, available from Alcon Laboratories, Forth Worth, Texas. One drop of proparacaine (0.5 percent w/v) was applied to each eye prior to taking tonometric readings. The tonometer was calibrated by a manometric standard prior to initiation of these studies and checked on an air standardizer on each day of use. […] Pupil diameters were measured under normal laboratory light.
Each drug discussed hereinafter was dissolved in sterile physiological saline.
The reported values are the means of the maximal responses based on the time courses of the responses in pairs of eyes of individual subjects. The numbers in parentheses denote the number of experimental subjects. Po (mm Hg) is the intraocular pressure in seated subjects, C (µl min^-1 mm Hg^-1) is the outflow facility, and F (ul min^-1) is the rate of formation of the aqueous humor (subject supine).

Data set [4] is described as follows: Solubility in water. Format: physicochemical.
For data set [5] the following is noted: human, in vivo. On the procedure: The blood pressure and the heart rate of all subjects given the dipivaloyl a-methyl epinephrine were measured prior to and after administration of the drop. No decrease in blood pressure or heart rate was observed.
The mark [6] stands for this setting: 0.5 percent (w/v), six rabbits, time 0 hours.
Where [7] appears, read: 0.5 percent (w/v), six rabbits, time 1 hour.
The mark [8] stands for this setting: 0.5 percent (w/v), six rabbits, time 3 hours.
Where [9] appears, read: 0.5 percent (w/v), six rabbits, time 4 hours.
Where [10] appears, read: tonographic studies on human subjects.
[11] abbreviates: 0.1 percent (w/v), normal subjects.
[12] abbreviates: 0.5 percent (w/v), normal subjects.
Setting [13] is: 0.5 percent (w/v), two normal subjects.
The mark [14] stands for this setting: 0.5 percent (w/v) solution, eight rabbits, time 0 hours.
Setting [15] is: 0.5 percent (w/v) solution, eight rabbits, time 0.5 hours.
Setting [16] is: 0.5 percent (w/v) solution, eight rabbits, time 1.0 hours.
[17] abbreviates: 0.5 percent (w/v) solution, eight rabbits, time 3.0 hours.
Setting [18] is: 0.5 percent (w/v) solution, eight rabbits, time 5.0 hours.
The mark [19] stands for this setting: 0.5 percent (w/v) solution, eight rabbits, time 24.0 hours.

As to `CC(N)C(O)c1ccc(O)c(O)c1` (racemic) [α-Methyl Norepinephrine, a-methyl norepinephrine], the lowering intraocular pressure result in data set [1] was “inactive”. Moreover, the “Intraocular Pressure (mm Hg) Mean Δ” value is 0.9 ± 0.3 (4) mm Hg in data set [2] (0.1 percent wt. by volume); 4.5 ± 0.3 (4) mm Hg in data set [2] (0.3 percent wt. by volume); 6.0 ± 0.3 (4) mm Hg in data set [2] (0.5 percent wt. by volume); 6.8 ± 0.7 (6) mm Hg in data set [2] (0.8 percent wt. by volume); 7.4 ± 0.7 (10) mm Hg in data set [2] (1.0 percent wt. by volume). Besides, the “Pupil Diameter (mm) Mean Δ” value is on record as 0.9 ± 0.4 (4) mm in data set [2] (0.1 percent wt. by volume); 1.2 ± 0.63 (4) mm in data set [2] (0.3 percent wt. by volume); 0.9 ± 0.5 (4) mm in data set [2] (0.5 percent wt. by volume); 1.1 ± 0.30 (6) mm in data set [2] (0.8 percent wt. by volume); 3.4 ± 0.4 (10) mm in data set [2] (1.0 percent wt. by volume). In addition, the “Intraocular Pressure (mm Hg) Exp. Eye” value is 20.6 ± 1.3 mm Hg in data set [2] (0.1 percent wt. by volume); 16.5 ± 0.3 mm Hg in data set [2] (0.3 percent wt. by volume); 15.5 ± 0.8 mm Hg in data set [2] (0.5 percent wt. by volume); 15.7 ± 1.1 mm Hg in data set [2] (0.8 percent wt. by volume); 14.3 ± 0.6 mm Hg in data set [2] (1.0 percent wt. by volume). Further, the “Pupil Diameter (mm) Exp. Eye” value in data set [2] (0.1 percent wt. by volume) is given as 4.6 ± 0.47 mm; in data set [2] (0.3 percent wt. by volume), 4.4 ± 0.9 mm; in data set [2] (0.5 percent wt. by volume) it was 3.9 ± 0.4 mm; in data set [2] (0.8 percent wt. by volume), 4.8 ± 0.42 mm; in data set [2] (1.0 percent wt. by volume), 7.2 ± 0.51 mm. Also, the “Intraocular Pressure (mm Hg) Mean Δ Control-Exp.” value in data set [2] (setting [6]) is 0.3 ± 0.3 (6) mm Hg; in data set [2] (setting [7]) it was 2.8 ± 0.9 (6) mm Hg; in data set [2] (setting [8]), 7.2 ± 0.9 (6) mm Hg; in data set [2] (setting [9]), 6.3 ± 1.2 (6) mm Hg. Moreover, the “Intraocular Pressure (mm Hg) Treated Eye” value was 22.8 ± 1.4 (6) mm Hg in data set [2] (setting [6]), 20.2 ± 1.6 (6) mm Hg in data set [2] (setting [7]), 15.8 ± 1.3 (6) mm Hg in data set [2] (setting [8]) and 16.7 ± 1.2 (6) mm Hg in data set [2] (setting [9]).
As for `CNC(C)C(O)c1ccc(OC(=O)C(C)(C)C)c(OC(=O)C(C)(C)C)c1` (centres unmarked) [4-(2-N-methylamino-1-hydroxypropyl)-1,2-dipivaloyloxybenzene hydrochloride], the pupillary response result in data set [3] (0.1 percent (w/v), normal subject) is “almost complete lack of pupillary response”. Moreover, in data set [3] (24 hours), the “intraocular pressures of the treated eyes” value is recorded as “recovered”. Besides, in data set [3] (at 1 and 5 hours), the “intraocular pressures of the treated eyes” value was “significantly decreased”. Also, in data set [3] (setting [10]), the outflow facility entry is listed as “increase” and the “rate of formation of the aqueous humor” value is “reduction”.
Turning to `CC(N)C(O)c1ccc(OC(=O)C(C)(C)C)c(OC(=O)C(C)(C)C)c1` (centres unmarked) [Compound 5, 4-(2-amino-1-hyaroxypropyt)-1,2-dipivaioyioxybenzene hydrochloride], in data set [4], the solubility in water entry is on record as “freely soluble in water”.
On to `CNC(C)C(O)c1ccc(OC(=O)C(C)(C)C)c(OC(=O)C(C)(C)C)c1` (centres unmarked) [diester of a-methyl epinephrine], for which, in data set [2], the intraocular pressure entry was “reducing intraocular pressure” and the pupillary dilation result is reported as “lack of pupillary dilation”.
In the case of `CC(N)C(O)c1ccc(OC(=O)C(C)(C)C)c(OC(=O)C(C)(C)C)c1` (centres unmarked) [diester of a-methyl norepinephrine], in data set [2], the intraocular pressure entry was “reducing intraocular pressure” and the pupillary dilation entry was “lack of pupillary dilation”.
For the compound `CNC(C)C(O)c1ccc(OC(=O)C(C)(C)C)c(OC(=O)C(C)(C)C)c1` (centres unmarked) [dipivaloyl a-methyl epinephrine], the “intraocular pressure of the treated eye” value in data set [3] (one drop of 0.05 percent (w/v), three normal human subjects, at 1 and 3 hours) is on record as “decreased”. Further, in data set [5], the blood pressure entry is listed as “No decrease” and the heart rate entry is “No decrease”.
For `CNCC(O)c1ccc(OC(=O)C(C)(C)C)c(OC(=O)C(C)(C)C)c1` (centres unmarked) [dipivaloyl epinephrine, reference compound], the intraocular pressure response result is listed as “no effect on intraocular pressure” in data set [3] (setting [11]) and “significant decrease of intraocular pressure” in data set [3] (setting [12]). Moreover, the mydriasis result in data set [3] (setting [12]) is reported as “marked mydriasis”. In data set [3] (normal subjects, 1 hour after application), the “intraocular pressure response at 1 hour” value was “no significant pressure response”.
In the case of `CC(C)(C)NC[C@H](O)COc1nsnc1N1CCOCC1` [timolol maleate, reference compound], the results for the intraocular pressure response entry in data set [3] (setting [11]) and in data set [3] (setting [12]) were “no demonstrable pressure response” and “did give a pressure response”, respectively. The pupillary response result in data set [3] (normal subjects, concentration not given) is reported as “lack of pupillary response”. The outflow facility result in data set [3] (setting [10]) was “no effect”.
For the compound `CNC(C)C(O)c1ccc(O)c(O)c1` (stereo not drawn) [α-methyl Epinephrine Hydrochloride, a-methyl epinephrine hydrochloride], in data set [1], the lowering intraocular pressure result is “inactive”. For the same compound, in data set [3] (setting [13]), the “intraocular pressure in the treated eyes” value was “significant decrease”. In addition, in data set [3] (setting [13]), the mydriatic response result was “not associated with a mydriatic response”. Also, the “time to development of the decrease of intraocular pressure” value in data set [3] (setting [13]) is at most 1 h. The “Intraocular Pressure (mm Hg) Mean Δ Control-Exp.” value in data set [2] (setting [14]) is given as −0.1 ± 0.2 mm Hg; in data set [2] (setting [15]), 3.3 ± 0.8 mm Hg; in data set [2] (setting [16]) it was 5.9 ± 0.6 mm Hg; in data set [2] (setting [17]) it was 6.0 ± 0.8 mm Hg; in data set [2] (setting [18]), 5.5 ± 0.7 mm Hg; in data set [2] (setting [19]), 0.6 ± 0.1 mm Hg. For the same compound, the “Intraocular Pressure (mm Hg) Treated Eye” value in data set [2] (setting [14]) was found to be 22.7 ± 0.6 mm Hg; in data set [2] (setting [15]), 19.4 ± 1.3 mm Hg; in data set [2] (setting [16]), 15.9 ± 1.2 mm Hg; in data set [2] (setting [17]), 14.1 ± 0.5 mm Hg; in data set [2] (setting [18]) it was 14.6 ± 0.6 mm Hg; in data set [2] (setting [19]), 22.9 ± 0.9 mm Hg. Besides, the intraocular pressure entry in data set [2] is “reducing intraocular pressure”. Besides, the pupillary dilation result in data set [2] is on record as “lack of pupillary dilation”.
